The source made the active and inactive calls. The calls are words filed in the database; no cut-off is given here.
How the values were obtained:
Hepatitis C virus = assay: Antiviral activity against HCV genotype 1b infected in human Huh7 cells after 3 days by luciferase reporter gene assay; type: functional, cell-based, Hepacivirus hominis; details: Huh-7, 72 h
[1] = biological target: T1, Histone deacetylase 8 (Homo sapiens) (UniProt Q9BY41); assay: Inhibition of full length human HDAC8 expressed in Escherichia coli assessed as inhibition of fluorophore 7-amino-4-methylcoumarin release by fluorescence assay
T1 sequence (whole entry): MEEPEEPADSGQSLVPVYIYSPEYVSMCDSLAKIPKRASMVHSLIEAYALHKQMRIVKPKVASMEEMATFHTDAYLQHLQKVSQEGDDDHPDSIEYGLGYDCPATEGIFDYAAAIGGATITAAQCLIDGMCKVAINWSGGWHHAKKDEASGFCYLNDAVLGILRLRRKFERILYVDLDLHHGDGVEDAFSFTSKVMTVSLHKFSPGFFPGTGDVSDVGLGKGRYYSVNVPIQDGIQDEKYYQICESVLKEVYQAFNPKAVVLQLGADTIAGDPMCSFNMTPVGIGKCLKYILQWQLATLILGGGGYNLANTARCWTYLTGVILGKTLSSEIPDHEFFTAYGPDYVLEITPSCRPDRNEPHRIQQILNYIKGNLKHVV

[2] = biological target: T2, Protein deacetylase HDAC6 (Homo sapiens) (UniProt Q9UBN7); assay: Inhibition of full length N-terminal GST-tagged human HDAC6 expressed in baculovirus expression system assessed as inhibition of fluorophore 7-amino-4-methylcoumarin release by fluorescence assay
T2 sequence (whole entry): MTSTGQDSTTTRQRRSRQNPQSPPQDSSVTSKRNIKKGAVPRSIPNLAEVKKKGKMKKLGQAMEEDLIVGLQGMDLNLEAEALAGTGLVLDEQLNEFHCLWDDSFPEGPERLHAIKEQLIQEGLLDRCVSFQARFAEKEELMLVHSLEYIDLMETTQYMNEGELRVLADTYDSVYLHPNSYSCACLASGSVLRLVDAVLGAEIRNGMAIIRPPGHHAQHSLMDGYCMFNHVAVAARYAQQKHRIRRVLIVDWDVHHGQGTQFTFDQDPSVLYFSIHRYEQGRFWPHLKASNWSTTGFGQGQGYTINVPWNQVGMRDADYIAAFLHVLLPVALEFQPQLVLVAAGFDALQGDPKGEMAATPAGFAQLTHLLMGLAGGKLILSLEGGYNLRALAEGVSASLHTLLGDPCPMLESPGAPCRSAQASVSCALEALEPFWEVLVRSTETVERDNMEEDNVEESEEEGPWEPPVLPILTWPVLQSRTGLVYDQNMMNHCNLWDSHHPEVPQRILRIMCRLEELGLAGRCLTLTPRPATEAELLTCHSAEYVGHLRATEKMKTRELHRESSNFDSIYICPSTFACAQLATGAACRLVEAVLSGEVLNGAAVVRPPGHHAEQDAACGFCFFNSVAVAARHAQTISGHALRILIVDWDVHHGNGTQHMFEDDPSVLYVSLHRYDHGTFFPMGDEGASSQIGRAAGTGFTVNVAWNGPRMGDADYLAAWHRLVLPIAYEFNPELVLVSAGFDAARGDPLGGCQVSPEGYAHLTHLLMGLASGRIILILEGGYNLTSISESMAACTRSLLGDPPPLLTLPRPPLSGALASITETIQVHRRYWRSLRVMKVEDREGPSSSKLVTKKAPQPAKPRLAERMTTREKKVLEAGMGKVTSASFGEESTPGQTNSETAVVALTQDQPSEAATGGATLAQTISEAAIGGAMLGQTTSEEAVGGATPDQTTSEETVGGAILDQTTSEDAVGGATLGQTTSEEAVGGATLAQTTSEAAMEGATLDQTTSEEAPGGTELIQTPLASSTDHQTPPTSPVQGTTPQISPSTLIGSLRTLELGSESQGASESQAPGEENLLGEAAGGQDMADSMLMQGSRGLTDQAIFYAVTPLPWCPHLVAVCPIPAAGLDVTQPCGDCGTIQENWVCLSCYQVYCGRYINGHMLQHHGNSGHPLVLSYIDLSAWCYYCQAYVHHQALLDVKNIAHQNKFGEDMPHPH

[3] = biological target: T3, Histone deacetylase 11 (Homo sapiens) (UniProt Q96DB2); assay: Inhibition of N-terminal GST-tagged human HDAC11 expressed in baculovirus expression system assessed as inhibition of fluorophore 7-amino-4-methylcoumarin release by fluorescence assay
T3 sequence (whole entry): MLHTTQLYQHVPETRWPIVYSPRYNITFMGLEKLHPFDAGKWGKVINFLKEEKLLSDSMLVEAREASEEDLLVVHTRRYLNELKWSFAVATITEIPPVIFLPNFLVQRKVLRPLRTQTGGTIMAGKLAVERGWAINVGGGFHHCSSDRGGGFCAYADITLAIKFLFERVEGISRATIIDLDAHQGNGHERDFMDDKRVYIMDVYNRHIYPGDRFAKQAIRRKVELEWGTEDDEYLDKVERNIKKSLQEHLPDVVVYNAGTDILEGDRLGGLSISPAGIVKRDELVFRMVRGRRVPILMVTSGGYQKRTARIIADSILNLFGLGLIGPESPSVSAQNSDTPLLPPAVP

[4] = biological target: Histone deacetylase 5 (Homo sapiens) (UniProt Q9UQL6); assay: Inhibition of full length N-terminal GST-tagged human HDAC5 expressed in baculovirus expression system assessed as inhibition of fluorophore 7-amino-4-methylcoumarin release by fluorescence assay
[5] = biological target: Histone deacetylase 1 (Homo sapiens) (UniProt Q13547); assay: Inhibition of full length C-terminal GST-tagged human HDAC1 expressed in baculovirus expression system assessed as inhibition of fluorophore 7-amino-4-methylcoumarin release by fluorescence assay
Hepacivirus hominis = assay: Inhibition of HCV NS5B RNA dependent RNA polymerase
[6] = biological target: Matrix metalloproteinase-14 (Homo sapiens) (UniProt P50281); assay: Inhibition of human recombinant […] catalytic domain (112 to 298 aa) expressed in Escherichia coli

Sequence of Histone deacetylase 1 (Homo sapiens) (Q13547 whole entry): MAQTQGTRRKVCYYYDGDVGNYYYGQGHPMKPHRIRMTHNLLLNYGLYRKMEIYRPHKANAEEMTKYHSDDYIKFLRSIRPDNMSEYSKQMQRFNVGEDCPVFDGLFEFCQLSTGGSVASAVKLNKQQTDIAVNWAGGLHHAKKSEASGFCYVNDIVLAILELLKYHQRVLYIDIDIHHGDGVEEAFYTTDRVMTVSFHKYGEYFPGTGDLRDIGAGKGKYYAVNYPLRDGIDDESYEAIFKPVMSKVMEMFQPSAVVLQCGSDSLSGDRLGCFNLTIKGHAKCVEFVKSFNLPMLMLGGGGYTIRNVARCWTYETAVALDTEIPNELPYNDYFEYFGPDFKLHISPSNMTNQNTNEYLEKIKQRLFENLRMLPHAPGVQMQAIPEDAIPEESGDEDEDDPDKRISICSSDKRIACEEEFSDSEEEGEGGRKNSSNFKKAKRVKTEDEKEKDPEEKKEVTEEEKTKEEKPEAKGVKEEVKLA
Sequence of Histone deacetylase 5 (Homo sapiens) (Q9UQL6 whole entry): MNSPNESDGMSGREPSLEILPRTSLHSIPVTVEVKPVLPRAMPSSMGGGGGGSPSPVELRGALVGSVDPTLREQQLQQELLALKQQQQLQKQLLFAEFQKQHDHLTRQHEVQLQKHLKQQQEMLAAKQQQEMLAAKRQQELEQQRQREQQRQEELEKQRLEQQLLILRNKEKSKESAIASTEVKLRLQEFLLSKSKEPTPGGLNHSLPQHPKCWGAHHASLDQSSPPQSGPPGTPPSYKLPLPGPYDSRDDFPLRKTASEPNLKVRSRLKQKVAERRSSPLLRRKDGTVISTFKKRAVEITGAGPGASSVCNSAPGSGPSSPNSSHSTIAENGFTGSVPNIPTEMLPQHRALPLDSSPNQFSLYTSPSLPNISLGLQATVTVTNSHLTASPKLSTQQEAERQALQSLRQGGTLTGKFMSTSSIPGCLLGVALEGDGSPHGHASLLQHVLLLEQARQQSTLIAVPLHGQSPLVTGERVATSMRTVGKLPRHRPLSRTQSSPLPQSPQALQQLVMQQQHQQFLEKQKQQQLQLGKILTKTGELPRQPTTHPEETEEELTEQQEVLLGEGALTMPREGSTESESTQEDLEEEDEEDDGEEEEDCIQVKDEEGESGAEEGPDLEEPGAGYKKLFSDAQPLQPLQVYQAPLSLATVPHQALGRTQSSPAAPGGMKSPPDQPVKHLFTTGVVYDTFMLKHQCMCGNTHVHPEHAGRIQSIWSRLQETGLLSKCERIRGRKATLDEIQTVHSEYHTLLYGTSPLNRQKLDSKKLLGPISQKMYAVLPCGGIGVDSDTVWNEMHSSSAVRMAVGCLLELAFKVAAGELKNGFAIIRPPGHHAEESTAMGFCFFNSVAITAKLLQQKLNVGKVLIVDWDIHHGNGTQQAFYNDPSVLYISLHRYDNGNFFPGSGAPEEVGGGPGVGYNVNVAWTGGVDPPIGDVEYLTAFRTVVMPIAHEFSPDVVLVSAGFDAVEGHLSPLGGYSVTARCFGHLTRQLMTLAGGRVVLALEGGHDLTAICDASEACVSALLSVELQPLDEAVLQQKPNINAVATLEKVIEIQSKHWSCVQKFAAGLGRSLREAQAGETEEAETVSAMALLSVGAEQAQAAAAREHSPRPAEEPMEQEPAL

EC50 (Hepatitis C virus): 610 nM | inhibition [1]: Active | inhibition [2]: inactive | inhibition [3]: inactive | inhibition [4]: inactive | inhibition [5]: inactive | inhibition (Hepacivirus hominis): inactive | inhibition [6]: Active
SMILES: O=C(NO)c1sc2ccccc2c1S(=O)(=O)c1ccccc1
